# According to article PMC10385850, “Modified Hederagenin Derivatives Demonstrate Ex Vivo Anthelmintic Activity against Fasciola hepatica” (Pharmaceutics, 2023):
# “Also recorded” adds a separate entry of the source. Read-outs that look alike come from different tables or passages of the source.
# Tests used:
# [1] = tested on: Madin–Darby bovine kidney (MDBK) cells; assay: MTT cell viability assay on MDBK cells; format: cell-based
# Description: MTT cell viability assays were performed on Madin–Darby bovine kidney (MDBK cells) for the five selected hederagenin derivatives (MC014, MC035, MC042, MC055 and MC062) using final concentrations of 100 μM, 75 μM, 50 μM, 25 μM, 10 μM, 5 μM and 1 μM (in 1% DMSO). Negative (1% v/v Triton X-100, Sigma-Aldrich, UK) and positive (1% v/v DMSO or media only) controls were included. The protocol was followed as previously described. Absolute EC50 values were calculated from the corrected absorbance of replicates by non-linear regression, after log transformation of concentrations and data normalization (where DMSO values represents 0% inhibition and TX-100 values represent 100% inhibition) using GrapPad Prism 8.
# [2] = tested on: immature F. hepatica flukes (Italian strain); assay: Ex vivo motility assay on immature liver flukes (Italian strain), single concentration and dose response; format: cell-based, Fasciola hepatica; settings: 40 µM; for Average motility of 4 parasites with 95% CI at 24 hour time point: score 1 normal to 5 no movement or death; for Effect on immature fluke motility, in words: by 72 h
# Description: The six selected compounds (at 40 µM in 0.4% DMSO) were evaluated on immature flukes (n = 4/condition) at 24, 48 and 72 h (Table S4). The protocol for culturing and scoring (motility) of these life stages have been previously described. Due to restricted numbers of immature worms, a dose response assay was conducted only for MC042. Here, immature worms (n = 2/concentration tested) were screened against descending concentrations of MC042 (40 µM, 13.3 µM and 4.4 µM); motility scores were recorded at 24, 48 and 72 h (Table S5). The scoring pattern used is identical to that described for NEJs.
# [3] = tested on: wild strain adult F. hepatica; assay: Ex vivo motility assay on adult liver flukes (wild strain); format: cell-based, Fasciola hepatica; settings: 40 µM; for Effect on wild strain adult fluke motility, in words: 72 h; for Average motility of 4 parasites with 95% CI at 72 hour time point: wild strain adult flukes, score 1 good/normal to 6 no movement or dead
# Description: Due to the high number of active molecules and a shortage of Italian strain adult liver flukes, the eleven hit compounds were screened for 72 h at 40 µM (in 0.4% DMSO) on wild strain adult F. hepatica (n = 4/condition) of unknown provenance (Table S3). The protocol for culturing and scoring (motility) the activity of these compounds was previously described (1—good/normal; 2—moderate; 3—resting (less than 10 s pulses of body and head), 4—apathetic (less than 2 s pulses of body and head), 5—paralysis and 6–no movement or dead worms). Six compounds were deemed active in these assays and were selected for further screening.
# [4] = tested on: adult F. hepatica flukes (Italian strain); assay: Ex vivo dose response motility assay on adult liver flukes (Italian strain); format: cell-based, Fasciola hepatica; settings: for Average motility of 3 parasites treated with 4.4 µM, 24 hours / Average motility of 3 parasites treated with 4.4 µM, 48 hours / Average motility of 3 parasites treated with 4.4 µM, 72 hours / Average motility of 3 parasites treated with 13.3 µM, 24 hours / Average motility of 3 parasites treated with 13.3 µM, 48 hours / Average motility of 3 parasites treated with 13.3 µM, 72 hours / Average motility of 3 parasites treated with 40 µM, 24 hours / Average motility of 3 parasites treated with 40 µM, 48 hours / Average motility of 3 parasites treated with 40 µM, 72 hours: adult flukes Italian strain, score 1 to 6; for EC50: adult flukes, motility
# Description: The collection, ex vivo culturing and screening of adult liver fluke (Italian strain; n = 3/condition) was previously described. Dose response assays (40 µM, 13.3 µM and 4.4 µM) were conducted for MC014, MC042, MC035, MC055 and MC062 with motility scores recorded at 24, 48 and 72 h (Table S6).
# [5] = tested on: F. hepatica newly excysted juveniles (NEJs), Italian strain; assay: Ex vivo screen against newly excysted juveniles (NEJs), phenotype and motility scoring; format: cell-based, Fasciola hepatica; settings: for Average motility of 25 NEJs with 95% CI, 24 hours / Average phenotype of 25 NEJs with 95% CI, 24 hours / Average motility of 25 NEJs with 95% CI, 48 hours / Average phenotype of 25 NEJs with 95% CI, 48 hours / Average motility of 25 NEJs with 95% CI, 72 hours / Average phenotype of 25 NEJs with 95% CI, 72 hours / Activity against NEJs (first screen), in words: 10 µM; for Average motility of 25 NEJs with 95% CI, 24 hours / Average motility of 25 NEJs with 95% CI, 48 hours / Average motility of 25 NEJs with 95% CI, 72 hours: motility score 1 good/normal to 5 no movement; for Average phenotype of 25 NEJs with 95% CI, 24 hours / Average phenotype of 25 NEJs with 95% CI, 48 hours / Average phenotype of 25 NEJs with 95% CI, 72 hours: ultrastructure score 1 normal to 6 dead or dissolved; for Activity against NEJs (first screen), in words: 72 h co-culture
# Description: […] The NEJs were excysted from metacercariae and assayed at 10 μM (in 0.1% DMSO) final concentration alongside negative (0.1% DMSO) and positive (10 μM TCBZ, in 0.1% DMSO) controls as previously described. The MC and IVL compound series were screened separately.
# The motility (1—good/normal; 2—moderate; 3—low; 4—very little; 5—no movement) and phenotypic (ultrastructural changes) scores were noted according to a previously described scoring matrix (Figure S1 and Table S2).
# [6] = 48 h, immature flukes, score 1 to 5
# [7] = 72 h, immature flukes, score 1 to 5
SMILES,"Average motility of 4 parasites with 95% CI at 24 hour time point ([2]; 24 h, immature flukes)","Average motility of 4 parasites with 95% CI at 48 hour time point [2, 6]","Average motility of 4 parasites with 95% CI at 72 hour time point [2, 7]","Effect on immature fluke motility, in words [2]","Effect on wild strain adult fluke motility, in words [3]",Average motility of 4 parasites with 95% CI at 72 hour time point [3],"Average motility of 3 parasites treated with 4.4 µM, 24 hours [4]","Average motility of 3 parasites treated with 4.4 µM, 48 hours [4]","Average motility of 3 parasites treated with 4.4 µM, 72 hours ([4]; 72 h)","Average motility of 3 parasites treated with 13.3 µM, 24 hours [4]","Average motility of 3 parasites treated with 13.3 µM, 48 hours [4]","Average motility of 3 parasites treated with 13.3 µM, 72 hours ([4]; 72 h)","Average motility of 3 parasites treated with 40 µM, 24 hours [4]","Average motility of 25 NEJs with 95% CI, 24 hours ([5]; 24 h)","Average phenotype of 25 NEJs with 95% CI, 24 hours ([5]; 24 h)","Average motility of 25 NEJs with 95% CI, 48 hours ([5]; 48 h)","Average phenotype of 25 NEJs with 95% CI, 48 hours ([5]; 48 h)","Average motility of 25 NEJs with 95% CI, 72 hours ([5]; 72 h)","Average phenotype of 25 NEJs with 95% CI, 72 hours ([5]; 72 h)","Activity against NEJs (first screen), in words [5]",further results
CC1(C)CC[C@]2(C(=O)O)CC[C@]3(C)C(=CC[C@@H]4[C@@]5(C)CC[C@@H]6OC(C)(C)OC[C@@]6(C)[C@@H]5CC[C@]43C)[C@@H]2C1 [MC014],5.00 (5.0;5.0),5.00 (5.0;5.0),5.00 (5.0;5.0),paralyzed the assayed immature flukes,no motility after 72 h; also recorded: performed very well,6.00 (6.0;6.0),1.00 (1.0;1.0),1.00 (1.0;1.0),3.00 (1.8; 4.1),1.33 (0.6;1.9),1.66 (0.3;2.9),3.33 (2.6;3.9),3.33 (2.6;3.9),5.00 (5.0;5.0),4.12 (3.5;4.6),5.00 (5.0;5.0),6.00 (6.0;6.0),5.00 (5.0;5.0),6.00 (6.0;6.0),maximal alterations to both phenotype/ultrastructure and motility,"CC50 with 95% CI on MDBK cells (cytotoxicity) ([1]; MDBK cells, MTT, 24 h exposure): Undefined ^c; Effect on MDBK cell proliferation, in words ([1]; dose response titration up to 100 μM): modest proliferative effect; Cytotoxicity on MDBK cells, in words ([1]; highest concentration tested 100 μM): not cytotoxic even at the highest concentration tested; Average motility of 3 parasites treated with 40 µM, 48 hours [4]: 4.00 (4.0;4.0); Average motility of 3 parasites treated with 40 µM, 72 hours ([4]; 72 h): 5.33 (4.0;6.6); EC50 ([4]; 24 h exposure, read-out: EC50 with 95% CI on Adult Flukes (motility), 24 hour): 13.5 µM; EC50 ([4]; 72 h, read-out: EC50 with 95% CI on Adult Flukes (motility), 72 hour): 9.3 µM; Effect on adult fluke (Italian strain) movement, in words ([4]; dose response, MC042 statement at 40 μM after 72 h): Decreased movement"
"CC(=O)OC[C@]12CCC(C)(C)CC1C1=CCC3[C@@]4(C)CC[C@H](O)[C@@](C)(CO)C4CC[C@@]3(C)[C@]1(C)CC2 (stereo partly drawn) [MC037, ((4aS,6aS,6bR,9R,10S,12aR)-10-Hydroxy-9-(hydroxymethyl)-2,2,6a,6b,9,12a-hexamethyl-1,3,4,5,6,6a, 6b,7,8,8a,9,10,11,12,12a,12b,13,14b-octadecahydropicen-4a(2H)-yl)methyl acetate]",,,,,less severe motility defects,3.25 (2;4.4),,,,,,,,5.00 (5.0;5.0),6.00 (6.0;6.0),5.00 (5.0;5.0),6.00 (6.0;6.0),5.00 (5.0;5.0),6.00 (6.0;6.0),maximal alterations to both phenotype/ultrastructure and motility,
CC(=O)OCC1(C)C(OC(C)=O)CCC2(C)C1CCC1(C)C2CC=C2C3CC(C)(C)CCC3(NC(=O)N3CCCC3)CCC21C (stereo not shown) [MC056],,,,,less severe motility defects; also recorded: limited activity,4.25 (3.3;5.1),,,,,,,,5.00 (5.0;5.0),6.00 (6.0;6.0),5.00 (5.0;5.0),6.00 (6.0;6.0),5.00 (5.0;5.0),6.00 (6.0;6.0),maximal alterations to both phenotype/ultrastructure and motility,
"CC(=O)OC[C@@]1(C)C2CC[C@]3(C)C(CC=C4C5CC(C)(C)CC[C@]5(NC(=O)N5CCCC5)CC[C@]43C)[C@@]2(C)CC[C@@H]1O (stereo partly drawn) [MC057, ((3S,4R,6aR,6bS,8aS,14bR)-3-Hydroxy-4,6a,6b,11,11,14b-hexamethyl-8a-(pyrrolidine-1-carbox-amido)-1,2,3,4,4a,5,6,6a,6b,7,8,8a,9,10,11,12,12a,14,14a, 14b-icosahydropicen-4-yl)-methyl acetate]",3.50 (2.5;4.4),4.25 (3.3;5.1),4.50 (3.5;5.4),least active in this series,partial paralysis,5.00 (5.0;5.0),,,,,,,,5.00 (5.0;5.0),6.00 (6.0;6.0),5.00 (5.0;5.0),6.00 (6.0;6.0),5.00 (5.0;5.0),6.00 (6.0;6.0),maximal alterations to both phenotype/ultrastructure and motility,
"CSc1nc2cc(Cl)c(Oc3cccc(Cl)c3Cl)cc2[nH]1 [Triclabendazole, reference compound]","5.0 (5.0,5.0)","5.0 (5.0,5.0)","5.0 (5.0,5.0)",completely immobile by 72 h,,6.00 (6.0;6.0),1.00 (1.0; 1.0),1.00 (1.0; 1.0),1.00 (1.0; 1.0),1.00 (1.0;1.0),1.33 (0.6;1.9),2.00 (0.8; 3.1),2.33 (1.6; 2.9),,,,,,,,"Average motility of 2 parasites treated with 40 µM, 24 hours ([2]; 24 h, immature flukes, dose response, score 1 to 5): 5.00 (5.0; 5.0); Average motility of 2 parasites treated with 40 µM, 48 hours ([2]; 48 h, immature flukes, dose response, score 1 to 5): 5.00 (5.0; 5.0); Average motility of 2 parasites treated with 40 µM, 72 hours ([2]; 72 h, immature flukes, dose response, score 1 to 5): 5.00 (5.0; 5.0); Average motility of 3 parasites treated with 40 µM, 48 hours [4]: 5.66 (5.0; 6.3); Average motility of 3 parasites treated with 40 µM, 72 hours ([4]; 72 h): 6.00 (6.0; 6.0); Average motility of NEJs with 95% CI, 24 hours (positive control) ([5]; 40µM, 24 h, 50 NEJs, score 1 to 5): 5.00 (5.0;5.0); Average phenotype of NEJs with 95% CI, 24 hours (positive control) ([5]; 40µM, 24 h, 50 NEJs, score 1 to 6): 6.00 (6.0;6.0); Average motility of NEJs with 95% CI, 48 hours (positive control) ([5]; 40µM, 48 h, 50 NEJs, score 1 to 5): 5.00 (5.0;5.0); Average phenotype of NEJs with 95% CI, 48 hours (positive control) ([5]; 40µM, 48 h, 50 NEJs, score 1 to 6): 6.00 (6.0;6.0); Average motility of NEJs with 95% CI, 72 hours (positive control) ([5]; 40µM, 72 h, 50 NEJs, score 1 to 5): 5.00 (5.0;5.0); Average phenotype of NEJs with 95% CI, 72 hours (positive control) ([5]; 40µM, 72 h, 50 NEJs, score 1 to 6): 6.00 (6.0;6.0)"
